ChEMBL document CHEMBL4387728, “Synthetic glycopeptides reveal specific binding pattern and conformational change at O-mannosylated position of α-dystroglycan by POMGnT1 catalyzed GlcNAc modification” (Bioorg Med Chem, 2019)
Activity calls are given as the source filed them. No cut-off for these calls is given here. Peptide text beside a SMILES is read from it. * marks the point of attachment. X1 = CC(=O)N[C@H]1[C@H](O[C@H]2[C@@H](O)[C@H](O)[C@@H](CO)O[C@@H]2*)O[C@H](CO)[C@@H](O[C@@H]2O[C@H](CO)[C@H](O)[C@H](O[C@]3(C(=O)O)C[C@H](O)[C@@H](NC(C)=O)[C@H]([C@H](O)[C@H](O)CO)O3)[C@H]2O)[C@@H]1O; X2 = CC(=O)N[C@H]1[C@H](O[C@H]2[C@@H](O)[C@H](O)[C@@H](CO)O[C@@H]2*)O[C@H](CO)[C@@H](O[C@@H]2O[C@H](CO)[C@H](O)[C@H](O)[C@H]2O)[C@@H]1O; GlcNAc(β1-2)αMan = CC(=O)N[C@H]1[C@H](O[C@H]2[C@@H](O)[C@H](O)[C@@H](CO)O[C@@H]2*)O[C@H](CO)[C@@H](O)[C@@H]1O; Hexanoyl(5-oxo) = CC(=O)CCCC(=O)*

Assays:
Triticum aestivum = test: Binding affinity to biotin-labeled Wheat germ agglutinin in pH 7.4 Tris buffer by fluorescence microarray method
Homo sapiens [1] = organism: Homo sapiens; test: Binding affinity to biotin-labeled human recombinant laminin-2 at 10 ug/ml in 5.6 MES buffer by fluorescence microarray method
[2] = target: Lactotransferrin (Homo sapiens) (UniProt P02788); test: Binding affinity to biotin-labeled lactoferrin (unknown origin) at 10 ug/ml in pH 5.6 MES buffer by fluorescence microarray method
[3] = tested on: Sambucus racemosa subsp. sieboldiana; test: Binding affinity to biotin-labeled Sambucus sieboldiana agglutinin in pH 7.4 Tris buffer by fluorescence microarray method
Maackia amurensis = test: Binding affinity to biotin-labeled Maackia amurensis agglutinin in pH 7.4 Tris buffer by fluorescence microarray method
[4] = target: Laminin subunit alpha-1 (Homo sapiens) (UniProt P25391); test: Binding affinity to biotin-labeled human recombinant laminin-1 at 10 ug/ml in pH 7.4 Tris buffer by fluorescence microarray method
Erythrina crista-galli = test: Binding affinity to biotin-labeled Erythrina crista-galli agglutinin in pH 7.4 Tris buffer by fluorescence microarray method
Datura stramonium = test: Binding affinity to biotin-labeled Datura stramonium agglutinin in pH 7.4 Tris buffer by fluorescence microarray method
Arachis hypogaea = test: Binding affinity to biotin-labeled Arachis hypogaea agglutinin in pH 7.4 Tris buffer by fluorescence microarray method
[5] = target: Laminin subunit alpha-1 (Homo sapiens) (UniProt P25391); test: Binding affinity to biotin-labeled human recombinant laminin-1 at 10 ug/ml in pH 5.6 MES buffer by fluorescence microarray method
Homo sapiens [6] = organism: Homo sapiens; test: Binding affinity to biotin-labeled human recombinant laminin-2 at 10 ug/ml in pH 7.4 Tris buffer by fluorescence microarray method
[7] = target: Lactotransferrin (Homo sapiens) (UniProt P02788); test: Binding affinity to biotin-labeled lactoferrin (unknown origin) at 10 ug/ml in pH 7.4 Tris buffer by fluorescence microarray method
[8] = Binding affinity to biotin-labeled Agaricus bisporus agglutinin in pH 7.4 Tris buffer by fluorescence microarray method
Canavalia ensiformis = test: Binding affinity to biotin-labeled Canavalia ensiformis agglutinin in pH 7.4 Tris buffer by fluorescence microarray method

Chain of Laminin subunit alpha-1 (Homo sapiens) (P25391 whole entry): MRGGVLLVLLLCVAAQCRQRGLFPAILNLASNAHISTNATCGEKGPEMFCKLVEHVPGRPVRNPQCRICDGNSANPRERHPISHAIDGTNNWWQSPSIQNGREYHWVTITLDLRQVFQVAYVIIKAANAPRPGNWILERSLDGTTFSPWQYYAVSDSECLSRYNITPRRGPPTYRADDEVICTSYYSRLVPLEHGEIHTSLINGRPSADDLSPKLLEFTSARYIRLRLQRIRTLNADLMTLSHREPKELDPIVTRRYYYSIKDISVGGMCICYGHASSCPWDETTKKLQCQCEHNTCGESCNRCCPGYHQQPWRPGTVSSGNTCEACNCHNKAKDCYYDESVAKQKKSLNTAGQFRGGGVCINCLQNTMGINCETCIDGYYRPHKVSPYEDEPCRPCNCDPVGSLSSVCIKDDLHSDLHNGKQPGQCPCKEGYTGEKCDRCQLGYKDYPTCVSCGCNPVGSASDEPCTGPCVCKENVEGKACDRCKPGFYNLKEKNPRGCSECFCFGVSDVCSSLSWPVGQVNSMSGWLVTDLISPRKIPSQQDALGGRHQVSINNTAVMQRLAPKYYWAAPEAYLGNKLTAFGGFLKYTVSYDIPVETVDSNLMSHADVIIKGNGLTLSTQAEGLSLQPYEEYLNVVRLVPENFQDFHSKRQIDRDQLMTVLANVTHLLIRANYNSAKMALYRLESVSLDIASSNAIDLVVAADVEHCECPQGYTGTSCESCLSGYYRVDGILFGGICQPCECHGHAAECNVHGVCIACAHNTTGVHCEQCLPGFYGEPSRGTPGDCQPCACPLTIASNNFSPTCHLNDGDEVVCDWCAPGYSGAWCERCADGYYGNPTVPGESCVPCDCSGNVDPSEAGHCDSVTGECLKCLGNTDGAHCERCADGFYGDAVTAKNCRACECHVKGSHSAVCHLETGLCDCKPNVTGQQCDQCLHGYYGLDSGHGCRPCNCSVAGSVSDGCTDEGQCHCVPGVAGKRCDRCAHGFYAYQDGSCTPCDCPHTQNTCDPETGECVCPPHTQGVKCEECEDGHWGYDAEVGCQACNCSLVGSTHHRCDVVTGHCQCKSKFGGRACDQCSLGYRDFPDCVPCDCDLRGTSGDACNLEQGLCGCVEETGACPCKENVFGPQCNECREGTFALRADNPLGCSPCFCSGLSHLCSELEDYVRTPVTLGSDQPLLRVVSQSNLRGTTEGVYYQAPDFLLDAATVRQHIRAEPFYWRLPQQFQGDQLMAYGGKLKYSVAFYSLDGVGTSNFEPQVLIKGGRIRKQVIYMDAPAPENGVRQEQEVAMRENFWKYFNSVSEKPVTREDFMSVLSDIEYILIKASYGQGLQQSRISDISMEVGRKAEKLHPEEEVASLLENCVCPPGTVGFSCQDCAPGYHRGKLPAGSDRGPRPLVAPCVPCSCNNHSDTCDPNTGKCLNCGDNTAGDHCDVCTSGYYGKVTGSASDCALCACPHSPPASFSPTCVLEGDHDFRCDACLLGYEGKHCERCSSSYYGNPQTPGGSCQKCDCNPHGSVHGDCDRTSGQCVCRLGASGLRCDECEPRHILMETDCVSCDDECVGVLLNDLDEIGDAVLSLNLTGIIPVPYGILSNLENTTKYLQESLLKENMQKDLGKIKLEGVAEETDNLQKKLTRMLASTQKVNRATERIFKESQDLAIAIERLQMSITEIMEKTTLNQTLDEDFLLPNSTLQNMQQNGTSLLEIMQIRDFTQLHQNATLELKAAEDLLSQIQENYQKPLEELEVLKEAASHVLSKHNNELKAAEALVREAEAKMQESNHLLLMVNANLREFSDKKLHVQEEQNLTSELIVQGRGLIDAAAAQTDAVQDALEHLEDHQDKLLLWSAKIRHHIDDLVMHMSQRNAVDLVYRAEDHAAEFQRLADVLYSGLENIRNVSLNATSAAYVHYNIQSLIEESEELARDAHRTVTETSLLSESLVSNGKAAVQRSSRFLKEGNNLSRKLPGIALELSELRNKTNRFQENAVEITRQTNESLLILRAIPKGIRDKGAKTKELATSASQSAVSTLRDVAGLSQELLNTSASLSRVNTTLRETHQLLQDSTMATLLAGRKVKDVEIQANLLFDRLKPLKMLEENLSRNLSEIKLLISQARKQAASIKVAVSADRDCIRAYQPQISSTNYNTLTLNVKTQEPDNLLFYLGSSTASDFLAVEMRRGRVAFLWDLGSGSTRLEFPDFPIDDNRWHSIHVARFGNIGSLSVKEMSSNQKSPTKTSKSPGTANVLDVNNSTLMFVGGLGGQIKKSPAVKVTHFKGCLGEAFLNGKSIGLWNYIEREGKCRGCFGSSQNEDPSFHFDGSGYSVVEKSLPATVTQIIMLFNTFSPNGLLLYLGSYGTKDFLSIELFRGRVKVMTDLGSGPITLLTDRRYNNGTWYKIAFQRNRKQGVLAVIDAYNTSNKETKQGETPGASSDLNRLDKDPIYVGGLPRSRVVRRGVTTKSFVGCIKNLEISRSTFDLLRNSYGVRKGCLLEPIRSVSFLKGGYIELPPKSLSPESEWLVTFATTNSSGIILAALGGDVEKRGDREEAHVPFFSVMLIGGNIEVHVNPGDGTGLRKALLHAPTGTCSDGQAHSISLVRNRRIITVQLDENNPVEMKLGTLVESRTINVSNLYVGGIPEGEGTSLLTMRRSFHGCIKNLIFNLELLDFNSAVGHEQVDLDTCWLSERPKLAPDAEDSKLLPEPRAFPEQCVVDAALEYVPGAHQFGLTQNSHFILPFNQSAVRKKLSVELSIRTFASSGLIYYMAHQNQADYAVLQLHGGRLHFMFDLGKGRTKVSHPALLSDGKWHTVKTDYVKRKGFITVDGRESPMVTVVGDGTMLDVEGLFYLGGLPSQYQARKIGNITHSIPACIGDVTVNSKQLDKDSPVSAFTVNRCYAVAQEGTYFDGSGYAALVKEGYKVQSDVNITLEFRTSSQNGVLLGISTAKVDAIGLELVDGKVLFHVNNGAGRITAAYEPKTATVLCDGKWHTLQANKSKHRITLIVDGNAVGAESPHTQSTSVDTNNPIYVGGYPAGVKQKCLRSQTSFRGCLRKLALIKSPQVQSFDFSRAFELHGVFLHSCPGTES
Chain of Lactotransferrin (Homo sapiens) (P02788 whole entry): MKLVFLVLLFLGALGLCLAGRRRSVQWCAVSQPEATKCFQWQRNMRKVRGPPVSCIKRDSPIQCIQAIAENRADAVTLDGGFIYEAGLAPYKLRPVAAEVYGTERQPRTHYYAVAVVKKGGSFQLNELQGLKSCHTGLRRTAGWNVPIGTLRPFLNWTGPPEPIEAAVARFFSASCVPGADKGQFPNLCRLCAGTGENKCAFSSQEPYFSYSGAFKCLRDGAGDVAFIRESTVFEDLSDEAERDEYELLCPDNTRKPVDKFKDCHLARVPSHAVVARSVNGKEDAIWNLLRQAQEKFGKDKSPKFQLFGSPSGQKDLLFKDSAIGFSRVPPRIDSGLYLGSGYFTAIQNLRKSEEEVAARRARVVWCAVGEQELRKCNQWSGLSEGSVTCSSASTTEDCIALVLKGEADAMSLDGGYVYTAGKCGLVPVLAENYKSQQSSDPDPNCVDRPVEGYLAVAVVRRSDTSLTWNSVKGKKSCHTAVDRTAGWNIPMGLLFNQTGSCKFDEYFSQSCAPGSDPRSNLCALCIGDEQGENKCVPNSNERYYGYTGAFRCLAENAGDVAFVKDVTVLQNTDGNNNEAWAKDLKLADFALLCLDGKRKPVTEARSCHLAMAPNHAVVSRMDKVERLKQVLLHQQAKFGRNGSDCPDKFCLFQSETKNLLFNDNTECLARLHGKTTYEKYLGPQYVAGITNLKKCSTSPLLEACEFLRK

Activity (Triticum aestivum)	Activity (Homo sapiens [1])	Activity [2]	Activity [3]	Activity (Maackia amurensis)	Activity [4]	Activity (Erythrina crista-galli)	Activity (Datura stramonium)	Activity (Arachis hypogaea)	Activity [5]	Activity (Homo sapiens [6])	Activity [7]	Activity [8]	Activity (Canavalia ensiformis)	SMILES
Active	Active	Active	Active	inactive	Active	Active	inactive	Active	Active	inactive	inactive	Active	Active	CC[C@H](C)[C@H](NC(=O)[C@H](C)NC(=O)CNC(=O)[C@H](CCCNC(=N)N)NC(=O)[C@@H](NC(=O)CCCC(C)=O)[C@@H](C)O)C(=O)N[C@H](C(=O)N[C@@H](CCC(N)=O)C(=O)N[C@H](C(=O)N1CCC[C@H]1C(=O)N[C@H](C(=O)N[C@@H](CC(C)C)C(=O)NCC(=O)N1CCC[C@H]1C(=O)N[C@H](C(=O)N[C@@H](CCC(N)=O)C(=O)N1CCC[C@H]1C(=O)N[C@H](C(=O)N[C@@H](CCCNC(=N)N)C(=O)N[C@H](C(N)=O)C(C)C)[C@@H](C)O[C@H]1O[C@H](CO)[C@@H](O)[C@H](O)[C@@H]1O[C@@H]1O[C@H](CO)[C@@H](O[C@@H]2O[C@H](CO)[C@H](O)[C@H](O)[C@H]2O)[C@H](O)[C@H]1NC(C)=O)[C@@H](C)CC)[C@@H](C)O)[C@@H](C)O[C@H]1O[C@H](CO)[C@@H](O)[C@H](O)[C@@H]1O[C@@H]1O[C@H](CO)[C@@H](O[C@@H]2O[C@H](CO)[C@H](O)[C@H](O)[C@H]2O)[C@H](O)[C@H]1NC(C)=O)[C@@H](C)CC ({Hexanoyl(5-oxo)}-TRGAIIQT(X2)PTLGPIQPT(X2)RV-NH2)
Active	Active	Active	Active	inactive	Active	Active	inactive	Active	Active	inactive	inactive	Active	Active	CC[C@H](C)[C@H](NC(=O)[C@H](C)NC(=O)CNC(=O)[C@H](CCCNC(=N)N)NC(=O)[C@@H](NC(=O)CCCC(C)=O)[C@@H](C)O)C(=O)N[C@H](C(=O)N[C@@H](CCC(N)=O)C(=O)N[C@H](C(=O)N1CCC[C@H]1C(=O)N[C@H](C(=O)N[C@@H](CC(C)C)C(=O)NCC(=O)N1CCC[C@H]1C(=O)N[C@H](C(=O)N[C@@H](CCC(N)=O)C(=O)N1CCC[C@H]1C(=O)N[C@H](C(=O)N[C@@H](CCCNC(=N)N)C(=O)N[C@H](C(N)=O)C(C)C)[C@@H](C)O)[C@@H](C)CC)[C@@H](C)O)[C@@H](C)O[C@H]1O[C@H](CO)[C@@H](O)[C@H](O)[C@@H]1O[C@@H]1O[C@H](CO)[C@@H](O[C@@H]2O[C@H](CO)[C@H](O)[C@H](O)[C@H]2O)[C@H](O)[C@H]1NC(C)=O)[C@@H](C)CC ({Hexanoyl(5-oxo)}-TRGAIIQT(X2)PTLGPIQPTRV-NH2)
Active	Active	Active	Active	inactive	Active	Active	inactive	Active	Active	inactive	inactive	Active	Active	CC[C@H](C)[C@H](NC(=O)[C@H](C)NC(=O)CNC(=O)[C@H](CCCNC(=N)N)NC(=O)[C@@H](NC(=O)CCCC(C)=O)[C@@H](C)O)C(=O)N[C@H](C(=O)N[C@@H](CCC(N)=O)C(=O)N[C@H](C(=O)N1CCC[C@H]1C(=O)N[C@H](C(=O)N[C@@H](CC(C)C)C(=O)NCC(=O)N1CCC[C@H]1C(=O)N[C@H](C(=O)N[C@@H](CCC(N)=O)C(=O)N1CCC[C@H]1C(=O)N[C@H](C(=O)N[C@@H](CCCNC(=N)N)C(=O)N[C@H](C(N)=O)C(C)C)[C@@H](C)O[C@H]1O[C@H](CO)[C@@H](O)[C@H](O)[C@@H]1O[C@@H]1O[C@H](CO)[C@@H](O)[C@H](O)[C@H]1NC(C)=O)[C@@H](C)CC)[C@@H](C)O[C@H]1O[C@H](CO)[C@@H](O)[C@H](O)[C@@H]1O[C@@H]1O[C@H](CO)[C@@H](O)[C@H](O)[C@H]1NC(C)=O)[C@@H](C)O)[C@@H](C)CC ({Hexanoyl(5-oxo)}-TRGAIIQTPT(GlcNAc(β1-2)αMan)LGPIQPT(GlcNAc(β1-2)αMan)RV-NH2)
Active	Active	Active	Active	inactive	Active	Active	inactive	Active	Active	inactive	inactive	Active	Active	CC[C@H](C)[C@H](NC(=O)[C@H](C)NC(=O)CNC(=O)[C@H](CCCNC(=N)N)NC(=O)[C@@H](NC(=O)CCCC(C)=O)[C@@H](C)O)C(=O)N[C@H](C(=O)N[C@@H](CCC(N)=O)C(=O)N[C@H](C(=O)N1CCC[C@H]1C(=O)N[C@H](C(=O)N[C@@H](CC(C)C)C(=O)NCC(=O)N1CCC[C@H]1C(=O)N[C@H](C(=O)N[C@@H](CCC(N)=O)C(=O)N1CCC[C@H]1C(=O)N[C@H](C(=O)N[C@@H](CCCNC(=N)N)C(=O)N[C@H](C(N)=O)C(C)C)[C@@H](C)O)[C@@H](C)CC)[C@@H](C)O[C@H]1O[C@H](CO)[C@@H](O)[C@H](O)[C@@H]1O[C@@H]1O[C@H](CO)[C@@H](O)[C@H](O)[C@H]1NC(C)=O)[C@@H](C)O)[C@@H](C)CC ({Hexanoyl(5-oxo)}-TRGAIIQTPT(GlcNAc(β1-2)αMan)LGPIQPTRV-NH2)
Active	Active	Active	Active	inactive	Active	Active	inactive	Active	Active	inactive	inactive	Active	Active	CC[C@H](C)[C@H](NC(=O)[C@H](C)NC(=O)CNC(=O)[C@H](CCCNC(=N)N)NC(=O)[C@@H](NC(=O)CCCC(C)=O)[C@@H](C)O)C(=O)N[C@H](C(=O)N[C@@H](CCC(N)=O)C(=O)N[C@H](C(=O)N1CCC[C@H]1C(=O)N[C@H](C(=O)N[C@@H](CC(C)C)C(=O)NCC(=O)N1CCC[C@H]1C(=O)N[C@H](C(=O)N[C@@H](CCC(N)=O)C(=O)N1CCC[C@H]1C(=O)N[C@H](C(=O)N[C@@H](CCCNC(=N)N)C(=O)N[C@H](C(N)=O)C(C)C)[C@@H](C)O[C@H]1O[C@H](CO)[C@@H](O)[C@H](O)[C@@H]1O[C@@H]1O[C@H](CO)[C@@H](O)[C@H](O)[C@H]1NC(C)=O)[C@@H](C)CC)[C@@H](C)O[C@H]1O[C@H](CO)[C@@H](O)[C@H](O)[C@@H]1O[C@@H]1O[C@H](CO)[C@@H](O[C@@H]2O[C@H](CO)[C@H](O)[C@H](O[C@]3(C(=O)O)C[C@H](O)[C@@H](NC(C)=O)[C@H]([C@H](O)[C@H](O)CO)O3)[C@H]2O)[C@H](O)[C@H]1NC(C)=O)[C@@H](C)O)[C@@H](C)CC ({Hexanoyl(5-oxo)}-TRGAIIQTPT(X1)LGPIQPT(GlcNAc(β1-2)αMan)RV-NH2)
Active	Active	Active	Active	inactive	Active	Active	inactive	Active	Active	inactive	inactive	Active	Active	CC[C@H](C)[C@H](NC(=O)[C@H](C)NC(=O)CNC(=O)[C@H](CCCNC(=N)N)NC(=O)[C@@H](NC(=O)CCCC(C)=O)[C@@H](C)O)C(=O)N[C@H](C(=O)N[C@@H](CCC(N)=O)C(=O)N[C@H](C(=O)N1CCC[C@H]1C(=O)N[C@H](C(=O)N[C@@H](CC(C)C)C(=O)NCC(=O)N1CCC[C@H]1C(=O)N[C@H](C(=O)N[C@@H](CCC(N)=O)C(=O)N1CCC[C@H]1C(=O)N[C@H](C(=O)N[C@@H](CCCNC(=N)N)C(=O)N[C@H](C(N)=O)C(C)C)[C@@H](C)O[C@H]1O[C@H](CO)[C@@H](O)[C@H](O)[C@@H]1O[C@@H]1O[C@H](CO)[C@@H](O[C@@H]2O[C@H](CO)[C@H](O)[C@H](O[C@]3(C(=O)O)C[C@H](O)[C@@H](NC(C)=O)[C@H]([C@H](O)[C@H](O)CO)O3)[C@H]2O)[C@H](O)[C@H]1NC(C)=O)[C@@H](C)CC)[C@@H](C)O[C@H]1O[C@H](CO)[C@@H](O)[C@H](O)[C@@H]1O[C@@H]1O[C@H](CO)[C@@H](O[C@@H]2O[C@H](CO)[C@H](O)[C@H](O[C@]3(C(=O)O)C[C@H](O)[C@@H](NC(C)=O)[C@H]([C@H](O)[C@H](O)CO)O3)[C@H]2O)[C@H](O)[C@H]1NC(C)=O)[C@@H](C)O)[C@@H](C)CC ({Hexanoyl(5-oxo)}-TRGAIIQTPT(X1)LGPIQPT(X1)RV-NH2)
